ChEMBL document CHEMBL1201862, “PubChem BioAssay data set” (2004)
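A five-concentration, 48-hour dose response in 96-well plates underlies each endpoint, interpolated linearly between surrounding concentrations. GI50 is the concentration that inhibits growth by half.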 Activity calls are given as the source filed them. No stated cut-off is given here; in the data, active = GI50 up to about 1.1 µM and inactive = higher.

Tests used:
Test in all cases: DTP human tumour cell line panel, 48 h
[1] = test system: SN12C
[2] = test system: NCI-H23
[3] = test system: TK-10
[4] = test system: ACHN
[5] = test system: UO-31
[6] = test system: HCT-116
[7] = test system: KM-20L2
[8] = test system: RXF 393
[9] = test system: HOP-92
[10] = test system: HOP-62
[11] = test system: SW-620
[12] = test system: MOLT-4
[13] = test system: LOX IMVI
[14] = test system: UACC-257
[15] = test system: RPMI-8226
[16] = test system: OVCAR-3
[17] = test system: Malme-3M
[18] = test system: PC-3
[19] = test system: MCF7
[20] = test system: Hs-578T

Measured: GI50

CCNC(=O)O/N=C1/C=C2CC[C@@H]3C(CC[C@@]4(C)C3CC[C@@H]4OC(=O)NCC)[C@@]2(C)CC1 (stereo not given in full)
inactive: [1] 4.28 µM | [2] 3.07 µM | [3] 2.56 µM | [4] 2.75 µM | [5] 1.78 µM | [6] 3.67 µM | [7] 2.28 µM | [8] 1.62 µM | [9] 4.43 µM | [10] 11.4 µM | [11] 3.02 µM | [12] 2.36 µM | [13] 3.32 µM | [14] 2.24 µM | [15] 2.52 µM

Cc1ccc(NC(=O)SCCC(=O)O)cc1NC(=O)SCCC(=O)O
inactive: [1] > 100 µM | [2] > 100 µM | [3] > 100 µM | [16] > 100 µM | [4] > 100 µM | [5] > 100 µM | [6] > 100 µM | [7] > 100 µM | [8] > 100 µM | [10] > 100 µM | [11] > 100 µM | [12] > 100 µM | [13] > 100 µM | [14] > 100 µM | [15] > 100 µM

Cn1c(=O)c2nc(-c3ccc(Cl)cc3)oc2n(C)c1=O
inactive: [1] > 100 µM | [2] > 100 µM | [3] > 100 µM | [16] > 100 µM | [4] > 100 µM | [5] > 100 µM | [6] > 100 µM | [7] > 100 µM | [17] > 100 µM | [8] > 100 µM | [9] > 100 µM | [11] > 100 µM | [12] > 100 µM | [13] > 100 µM | [14] > 100 µM | [15] > 100 µM

CC(C)c1cccc(C(C)C)c1NC(=O)C(=O)C1SC(=S)NC1=O (stereo not given)
inactive: [1] > 100 µM | [2] > 100 µM | [3] > 100 µM | [4] > 100 µM | [5] > 100 µM | [6] > 100 µM | [7] > 100 µM | [17] > 100 µM | [8] > 100 µM | [9] > 100 µM | [10] > 100 µM | [11] > 100 µM | [12] > 100 µM | [13] > 100 µM | [14] > 100 µM | [15] > 100 µM

O=c1cccccc1NCCCCCCCNc1cccccc1=O
inactive: [1] 49.3 µM | [2] 19.7 µM | [16] 24.5 µM | [4] 26.7 µM | [5] 25.3 µM | [6] 37.2 µM | [7] 38.1 µM | [17] 29.2 µM | [8] 7.74 µM | [9] 41.6 µM | [10] > 100 µM | [11] 52 µM | [12] 17 µM | [13] 12.1 µM | [14] 16.4 µM | [15] 13.8 µM

Cc1[nH]c2ccccc2c1CC/C(=N\Nc1ccccc1)c1ccccc1
inactive: [2] > 100 µM | [3] > 100 µM | [16] > 100 µM | [4] > 100 µM | [5] > 100 µM | [6] > 100 µM | [7] > 100 µM | [17] > 100 µM | [8] > 100 µM | [10] > 100 µM | [11] > 100 µM | [12] > 100 µM | [14] > 100 µM | [15] > 100 µM

CCOC(=O)/C(=C/c1ccc(OC)c(OC)c1)C(=O)c1ccccc1
inactive: [1] > 10 µM | [2] 17.7 µM | [3] 26.4 µM | [16] 18 µM | [4] 27.9 µM | [5] 14.4 µM | [7] 18.4 µM | [17] 76.6 µM | [10] 19.5 µM | [11] 19.4 µM | [12] 17.5 µM | [14] 15.1 µM | [15] 10.5 µM

COC(=O)NN1C(C)=C(C(=O)OC)C2(C#N)C(C(=O)OC)=C(C)N(NC(=O)OC)C12N (stereo not given)
inactive: [1] > 100 µM | [2] > 100 µM | [3] > 100 µM | [4] > 100 µM | [5] > 100 µM | [6] > 100 µM | [7] > 100 µM | [17] > 100 µM | [9] > 100 µM | [10] > 100 µM | [11] > 100 µM | [12] > 100 µM | [13] > 100 µM | [14] > 100 µM | [15] > 100 µM

N=C(N)N/N=C(/CCN1CCCC1)CC(c1ccccc1)c1c(O)c2ccccc2oc1=O (stereo not given)
inactive: [1] > 100 µM | [2] > 100 µM | [3] > 100 µM | [16] > 100 µM | [4] > 100 µM | [6] > 100 µM | [7] > 100 µM | [17] > 100 µM | [8] > 100 µM | [9] 16.7 µM | [10] > 100 µM | [11] > 100 µM | [13] > 100 µM | [14] > 100 µM | [15] > 100 µM

CCCCCCCCCOC(=S)NCCCCC
inactive: [1] 26.2 µM | [2] 26.7 µM | [3] 18.4 µM | [4] 29.1 µM | [5] 17.2 µM | [6] 22.2 µM | [7] 23.8 µM | [17] 29.8 µM | [8] 19.9 µM | [9] 20.7 µM | [10] 26.4 µM | [11] 32.7 µM | [12] 19 µM | [13] 15.6 µM | [14] 24.8 µM | [15] 19.5 µM

Cc1ccc(Oc2ccccc2N)cc1
inactive: [1] 31.7 µM | [2] 39.9 µM | [3] 88.1 µM | [16] 15.8 µM | [5] 12.4 µM | [6] 9.51 µM | [7] 12.7 µM | [17] > 100 µM | [8] 25.9 µM | [9] 37.8 µM | [10] 39 µM | [11] 45.9 µM | [12] 15.4 µM | [13] 23 µM | [14] 52.5 µM | [15] 33.7 µM

C#CC[C@]12CC(=O)CC[C@H]1CC(=O)C2
inactive: [1] > 100 µM | [3] > 100 µM | [16] > 100 µM | [4] > 100 µM | [5] > 100 µM | [6] > 100 µM | [7] > 100 µM | [17] > 100 µM | [8] > 100 µM | [10] > 100 µM | [11] > 100 µM | [12] > 100 µM | [14] > 100 µM | [15] > 100 µM

CC1(C)S[C@@H]2[C@H](NC(=O)C3(N)CCCCC3)C(=O)N2[C@H]1C(=O)O [CYCLACILLIN]
inactive: [1] > 100 µM | [2] > 100 µM | [18] > 100 µM | [3] > 100 µM | [16] > 100 µM | [4] > 100 µM | [5] > 100 µM | [6] > 100 µM | [17] > 100 µM | [19] > 100 µM | [20] > 100 µM | [8] > 100 µM | [9] > 100 µM | [10] > 100 µM | [11] > 100 µM | [12] > 100 µM | [13] > 100 µM | [14] > 100 µM | [15] > 100 µM
